In US7563791B2, “Pyrrolotriazine derivatives useful for treating hyper-proliferative disorders and diseases associated with angiogenesis” (Bayer Pharmaceuticals Corporation, priority 2004, dated 2009):
Each block holds one compound with its values, some of them ahead of it.

Experiments:
Type in all cases: cell-based
[1] = system: histone 3 phosphorylation in colon carcinoma (HCT116); experiment: p-Histone3 assay: inhibition of histone 3 phosphorylation in HCT116; details: Homo sapiens, HCT-116, 24 h, HCT116, 24 hours compound treatment
Experimental: Compounds were assayed for the inhibition of histone 3 phosphorylation in colon carcinoma (HCT116). Briefly, 20,000 cells/well were seeded in a 96-well black-walled, poly-d-lysine plates in RPMI+10% FBS and incubated at 37° C. in 5% CO2 overnight. The following day, the cells were treated with compounds for 24 hours at 37° C. Following compound treatment; plates were centrifuged at 1000 rpm for 2 minutes and washed twice with 100 μl of cold sterile TBS. Cells were then fixed with cold 3.7% formaldehyde in TBS (4° C. for 1 hour) and then permeabolized with 0.1% Triton-X-100 in TBS (room temperature for 30 minutes). Plates were then washed with of 0.25% BSA-TBS and blocked with BSA solution for 1 hour at room temperature while shaking. The supernatant was removed and replaced with diluted primary antibody (anti-phospho-histone 3, serine 10, Cell Signaling) at 1:250 in 0.25% BSA-TBS and incubated overnight at 4° C. The plates were washed and treated with diluted secondary antibody (anti-rabbit Eu-labeled) at 1:10000 in 0.25% BSA-TBS (room temperature for 1 hour). The antibody solution was removed from each well and washed eight times. The wash buffer was replaced with 50 μl pre-warmed enhancement solution and mixed on the orbital shaker for 10 minutes. Fluorescence was detected with a Victor V Fluorescence Detector. The data are expressed as percent inhibition: % inhibition=100−((Signal with inhibitor-background)/(Signal without inhibitor-background))×100.

HCT116 cells = experiment: Tumor cell proliferation (Alamar Blue), HCT116; details: Homo sapiens, HCT-116, 72 h
How it was run: (§1)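 Cells seeded at 3.0×10^3/well in RPMI with 10% FBS for 16 h, then treated with compound (added medium held 40 μM to 18 nM compound, 0.4% DMSO) for 72 h at 37 °C, 5% CO2. Viability by Alamar Blue, 3 h, fluorescence 544/590 nm. IC50 by linear regression of log concentration versus percent inhibition.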

[2] = system: FGFR stimulated HUVEC proliferation; experiment: BRDU growth factor stimulated proliferation of HUVEC (bFGF stimulation); details: Homo sapiens, 72 h, 1.5 ng/ml bFGF, 3 days, BrdU incorporation
Experimental: (§2) BRDU Growth Factor Stimulated Proliferation of HUVEC
(§3) Exponentially growing human umbilical vein endothelial cells (HUVEC; Cat# CC-2519A, Cambrex, Walkersville, Md.) were seeded at two thousand cells/well into Collagen IV-coated 96 well plates (Cat#35-4429, Becton Dickinson, Bedford, Mass.) in assay media containing RPMI-1640 (Cat#11875-093, Gibco, Carlsbad, Calif.), 0.5% charcoal-stripped serum (Cat# SH30068.03, HyClone, Logan, Utah), and 1% N-2 supplement (Cat#17502-048, Gibco, Carlsbad, Calif.). Fours hours after incubating the plates at 37° C. in 5% CO2, the cells were treated with different concentrations of compound (diluted in assay media with a final DMSO concentration=0.1%) and then were immediately stimulated with 80 ng/ml of vascular endothelial growth factor (VEGF, Cat#100-20, PeproTech, Rocky Hill, N.J.) or 1.5 ng/ml of basic fibroblast growth factor (bFGF, Catt#100-18B, PeproTech, Rocky Hill, N.J.). Treated cells were incubated for 3 days at 37° C. in 5% CO2. DNA synthesis was measured via the incorporation of bromodeoxyuridine (BrdU) into newly synthesized DNA using the Amersham Cell Proliferation BioTrack ELISA system (Cat# RPN250, Amersham, Piscataway, N.J.). Diluted BrdU solution (20 μl of stock BrdU diluted 1:20 fold into assay media) was added to each well and incubation proceeded for 6 hours at 37° C. in 5% CO2. The media was removed and the cells were fixed according to the specifications of the Amersham assay kit for 30 minutes at room temperature. After removing the fixative, blocking buffer (supplied by Amersham kit; 200 μl/well) was added and the plates were stored at 4° C. overnight. The blocking buffer was aspirated and peroxidase-labeled anti-BrdU antibody (supplied by Amersham kit; 100 μl/well) was added and incubated for 3 hours at room temperature. The plates were washed three times with wash buffer (supplied by Amersham kit; 300 μl/well/wash). Immediately following the washes, 100 μl of the TMB-substrate was dispensed into each well and the plates were further incubated for 30 minutes at room temperature. The reaction was terminated by the addition of 25 μl of 1M H2SO4. Plates were read immediately at 450 nm using a SpectraMAX 250 spectrophotometer plate reader (Molecular Devices, Sunnyvale, Calif.). The software utilized was SoftMAX pro v.2.4.1.

[3] = system: VEGF stimulated Phospho-ERK in HUVEC; experiment: Growth factor stimulated p-ERK assay in HUVECs (VEGF stimulation, ERK1/2 Bioplex); details: Homo sapiens, compound 2 hrs, then 50 ng/ml VEGF 10 min; for inhibition at 0.1 µM: @ 100 nM
How it was run: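 HUVECs in serum-free RPMI 1640/0.1% BSA pretreated with compound 2 hrs, then stimulated 10 min with 50 ng/ml VEGF (or bFGF). Lysate phospho-ERK1/2 quantified by bead-based Bio-Plex immunoassay on Luminex.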

[4] = system: VEGFR stimulated HUVEC proliferation; experiment: BRDU growth factor stimulated proliferation of HUVEC (VEGF stimulation); details: Homo sapiens, 72 h, 80 ng/ml VEGF, 3 days, BrdU incorporation
Experimental: as §2, §3

MDA-MB-231 cells = experiment: Tumor cell proliferation (Alamar Blue), MDA-MB-231; details: Homo sapiens, MDA-MB-231, 72 h
How it was run: as §1

IC50 [1]: < 0.5 µM
Compound: Nc1ncnn2cc(C(=O)NCC(F)(F)F)c(-c3ccc(NC(=O)Nc4cccc(CC(F)(F)F)c4)cc3)c12 [Example 92, 4-amino-N-(2,2,2-trifluoroethyl)-5-{4-[({[3-(2,2,2-trifluoroethyl)phenyl]amino}carbonyl)amino]phenyl}pyrrolo[2,1-f][1,2,4]triazine-6-carboxamide]

IC50 [1]: > 0.5 µM | IC50 ([1]; bound given in μM): < 1 µM
Compound: COCCNC(=O)c1cn2ncnc(N)c2c1-c1ccc(NC(=O)Nc2cc(C(F)(F)F)ccc2F)cc1 [Example 167, 4-amino-5-{4-[({[2-fluoro-5-(trifluoromethyl)phenyl]amino}carbonyl)amino]phenyl}-N-(2-methoxyethyl)pyrrolo[2,1-f][1,2,4]triazine-6-carboxamide]

IC50 [1]: < 0.5 µM
Compound: CCOC(=O)c1cn2ncnc(N)c2c1-c1ccc(NC(=O)Nc2cccc(Oc3ccccc3)c2)cc1 [Example 171, ethyl 4-amino-5-[4-({[(3-phenoxyphenyl)amino]carbonyl}amino)phenyl]pyrrolo[2,1-f][1,2,4]triazine-6-carboxylate]

IC50 [1]: < 0.5 µM
Compound: CCNC(=O)c1cn2ncnc(N)c2c1-c1ccc(NC(=O)Nc2cccc(C(F)(F)F)n2)cc1 [Example 176, 4-amino-N-ethyl-5-{4-[({[6-(trifluoromethyl)pyridin-2-yl]amino}carbonyl)amino]phenyl}pyrrolo[2,1-f][1,2,4]triazine-6-carboxamide]

IC50 [1]: < 0.5 µM
Compound: Nc1ncnn2cc(C(=O)NCC(F)(F)F)c(-c3ccc(NC(=O)Nc4ccc(F)c(C(F)(F)F)c4)cc3)c12 [Example 88, 4-amino-5-{4-[({[4-fluoro-3-(trifluoromethyl)phenyl]amino}carbonyl)amino]phenyl}-N-(2,2,2-trifluoroethyl)pyrrolo[2,1-f][1,2,4]triazine-6-carboxamide]

IC50 (HCT116 cells): < 0.5 µM | IC50 (MDA-MB-231 cells): < 0.5 µM
Compound: Nc1ncnn2cc(C(=O)NCC(F)(F)F)c(-c3ccc(NC(=O)Nc4cc(C(F)(F)F)ccc4F)cc3)c12 [Example 70, 4-amino-5-{4-[({[2-fluoro-5-(trifluoromethyl)phenyl]amino}carbonyl)amino]phenyl}-N-(2,2,2-trifluoroethyl)pyrrolo[2,1-f][1,2,4]triazine-6-carboxamide]
IC50 [2]: < 100 nM | inhibition at 0.1 µM [3]: > 50% | IC50 [4]: < 10 nM

IC50 (HCT116 cells; bounds given in μM): 1.5 to 5 µM | IC50 (MDA-MB-231 cells): > 0.5 µM | IC50 (MDA-MB-231 cells; bounds given in μM): < 1.5 µM
Compound: N#Cc1cn2ncnc(N)c2c1-c1ccc(NC(=O)Nc2cc(C(F)(F)F)ccc2F)cc1 [Example 99, N-[4-(4-amino-6-cyanopyrrolo[2,1-f][1,2,4]triazin-5-yl)phenyl]-N′-[2-fluoro-5-(trifluoromethyl)phenyl]urea]
IC50 [2]: < 100 nM | inhibition at 0.1 µM [3]: < 50% | inhibition at 1 µM ([3]; @ 1 μM): > 50% | IC50 [4]: 100 to 500 nM

IC50 [1]: > 0.5 µM | IC50 ([1]; bound given in μM): < 1 µM
Compound: CCOC(=O)c1cn2ncnc(N)c2c1-c1ccc(NC(=O)Nc2ccccc2C(F)(F)F)cc1 [Example 7, ethyl 4-amino-5-{4-[({[2-(trifluoromethyl)phenyl]amino}carbonyl)amino]phenyl}pyrrolo[2,1-f][1,2,4]triazine-6-carboxylate]

IC50 [1]: > 0.5 µM | IC50 ([1]; bound given in μM): < 1 µM
Compound: CCOC(=O)c1cn2ncnc(N)c2c1-c1ccc(NC(=O)Nc2ccc3c(c2)OCO3)cc1 [Example 13, ethyl 4-amino-5-(4-{[(1,3-benzodioxol-5-ylamino)carbonyl]amino}phenyl)pyrrolo[2,1-f][1,2,4]triazine-6-carboxylate]

IC50 [1]: < 0.5 µM
Compound: Nc1ncnn2cc(C(=O)NC3CC3)c(-c3ccc(NC(=O)Nc4cccc(C(F)(F)F)n4)cc3)c12 [Example 177, 4-amino-N-cyclopropyl-5-{4-[({[6-(trifluoromethyl)pyridin-2-yl]amino}carbonyl)amino]phenyl}pyrrolo[2,1-f][1,2,4]triazine-6-carboxamide]

IC50 [1]: > 0.5 µM | IC50 ([1]; bound given in μM): < 1 µM
Compound: CSCCCNC(=O)c1cn2ncnc(N)c2c1-c1ccc(NC(=O)Nc2cccc(C(F)(F)F)n2)cc1 [Example 204, 4-amino-N-[3-(methylthio)propyl]-5-{4-[({[6-(trifluoromethyl)pyridin-2-yl]amino}carbonyl)amino]phenyl}pyrrolo[2,1-f][1,2,4]triazine-6-carboxamide]

IC50 [1]: < 0.5 µM
Compound: CC(C)(C)NC(=O)c1cn2ncnc(N)c2c1-c1ccc(NC(=O)Nc2cccc(C(F)(F)F)n2)cc1 [Example 164, 4-amino-N-(tert-butyl)-5-{4-[({[6-(trifluoromethyl)pyridin-2-yl]amino}carbonyl)amino]phenyl}pyrrolo[2,1-f][1,2,4]triazine-6-carboxamide]

IC50 [1]: < 0.5 µM
Compound: CC(C)(C)CNC(=O)c1cn2ncnc(N)c2c1-c1ccc(NC(=O)Nc2cccc(C(F)(F)F)n2)cc1 [Example 165, 4-amino-N-(2,2-dimethylpropyl)-5-{4-[({[6-(trifluoromethyl)pyridin-2-yl]amino}carbonyl)amino]phenyl}pyrrolo[2,1-f][1,2,4]triazine-6-carboxamide]

IC50 (HCT116 cells; bounds given in μM): 1.5 to 5 µM | IC50 (MDA-MB-231 cells; bounds given in μM): 1.5 to 5 µM
Compound: COCCOCc1cn2ncnc(N)c2c1-c1ccc(NC(=O)Nc2cc(C(F)(F)F)ccc2F)cc1 [Example 157, N-(4-{4-amino-6-[(2-methoxyethoxy)methyl]pyrrolo[2,1-f][1,2,4]triazin-5-yl}phenyl)-N′-[2-fluoro-5-(trifluoromethyl)phenyl]urea]
IC50 [2]: 100 to 500 nM | IC50 [4]: 10 to 100 nM

IC50 [1]: < 0.5 µM
Compound: Nc1ncnn2cc(C(=O)NCC(F)(F)F)c(-c3ccc(NC(=O)Nc4cccc(C(F)(F)F)n4)cc3)c12 [Example 139, 4-amino-N-(2,2,2-trifluoroethyl)-5-{4-[({[6-(trifluoromethyl)pyridin-2-yl]amino}carbonyl)amino]phenyl}pyrrolo[2,1-f][1,2,4]triazine-6-carboxamide]

IC50 (HCT116 cells; bounds given in μM): 1.5 to 5 µM | IC50 (MDA-MB-231 cells; bounds given in μM): 5 to 10 µM
Compound: COCc1cn2ncnc(N)c2c1-c1ccc(NC(=O)Nc2cc(F)cc(C(F)(F)F)c2)cc1 [Example 102, N-{4-[4-amino-6-(methoxymethyl)pyrrolo[2,1-f][1,2,4]triazin-5-yl]phenyl}-N′-[3-fluoro-5-(trifluoromethyl)phenyl]urea]
IC50 [2]: 100 to 500 nM | IC50 [4]: 100 to 500 nM
